Experimental data as given in US20060069132A1, “Azolecarboxamide herbicides” (priority 2004, published 2006).

Assays:
[1] = test system: barnyardgrass; assay: Test B pre-/postemergence herbicide test; type: in vivo, Echinochloa crus-galli
How it was run: (§1)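 Species tested were Echinochloa crus-galli, Ipomoea coccinea, Xanthium strumarium and Oryza sativa, treated both before emergence and at the 1- to 4-leaf stage; rice and barnyardgrass were also tested under flooding at 2 leaves. Greenhouse incubation lasted 13–15 days before visual 0–100 scoring.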

[2] = test system: giant foxtail; assay: Test B pre-/postemergence herbicide test; type: in vivo, Setaria faberi
How it was run: (§2)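 Plants compared with untreated controls 13–15 days post-treatment and given a visual 0–100 injury score. Applications: preemergence to seeds; postemergence at 1- to 4-leaf (2–18 cm); paddy species flooded, 2-leaf stage. Vehicle non-phytotoxic, surfactant included.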

[3] = test system: redroot pigweed; assay: Test A pre-/postemergence herbicide test; type: in vivo, Amaranthus retroflexus
How it was run: (§3)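 Plants are held in greenhouse about ten days after treatment, then compared with untreated controls and scored 0 (no effect) to 100 (complete control). Preemergence dosing is a directed soil spray on sown sandy loam; postemergence dosing is spray to runoff at 2–10 cm height.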

[4] = test system: velvetleaf; assay: Test A pre-/postemergence herbicide test; type: in vivo, Abutilon theophrasti
How it was run: as §3

[5] = test system: barnyardgrass; assay: Test B flooded paddy test; type: in vivo, Echinochloa crus-galli; conditions: 1000 g ai/ha, visual rating, scale 0 to 100 (0 no effect, 100 complete control), 13 to 15 days
How it was run: (§4)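 Plants grow to 1- to 4-leaf stage (2–18 cm) for postemergence spraying, or to 2-leaf stage for the paddy test. Formulated compound is applied. Greenhouse holding lasts 13–15 days. Response is scored visually relative to controls, 0 no effect to 100 complete control; a dash means no result.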

[6] = test system: rice; assay: Test B pre-/postemergence herbicide test; type: in vivo, Oryza sativa; conditions: preemergence
How it was run: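 Greenhouse pot assay with simultaneous preemergence (treated seed) and postemergence (2–18 cm seedlings) applications of surfactant-containing, non-phytotoxic solvent formulations. Response scored visually 13–15 days later on a 0–100 scale, 100 meaning complete control.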

[7] = test system: giant foxtail; assay: Test A pre-/postemergence herbicide test; type: in vivo, Setaria faberi
How it was run: as §3

[8] = test system: cocklebur; assay: Test B pre-/postemergence herbicide test; type: in vivo, Xanthium strumarium
How it was run: as §1

[9] = test system: ducksalad; assay: Test B flooded paddy test; type: in vivo, Heteranthera limosa; conditions: 1000 g ai/ha, visual rating, scale 0 to 100 (0 no effect, 100 complete control), 13 to 15 days
How it was run: as §4

[10] = test system: velvetleaf; assay: Test B pre-/postemergence herbicide test; type: in vivo, Abutilon theophrasti; conditions: for Velvetleaf plant response rating: postemergence, visual rating
How it was run: as §2

[11] = test system: large crabgrass; assay: Test B pre-/postemergence herbicide test; type: in vivo, Digitaria sanguinalis
How it was run: as §2

[12] = test system: barnyardgrass; assay: Test A pre-/postemergence herbicide test; type: in vivo, Echinochloa crus-galli
How it was run: as §3

[13] = test system: blackgrass; assay: Test B postemergence herbicide test; type: in vivo, Alopecurus myosuroides; conditions: scale 0 (no effect) to 100 (complete control); for Plant response rating, Blackgrass: Postemergence, 500 g ai/ha, visual rating after 13 to 15 days; for Blackgrass plant response rating: postemergence, 125 g ai/ha, visual rating
How it was run: as §4

[14] = test system: morningglory; assay: Test A pre-/postemergence herbicide test; type: in vivo, Ipomoea spp.
How it was run: as §3

[15] = test system: corn; assay: Test B pre-/postemergence herbicide test; type: in vivo, Zea mays
How it was run: as §2

[16] = test system: pigweed; assay: Test B pre-/postemergence herbicide test; type: in vivo, Amaranthus retroflexus; conditions: for Pigweed plant response rating: postemergence, visual rating
How it was run: as §2

[17] = test system: lambsquarters; assay: Test B pre-/postemergence herbicide test; type: in vivo, Chenopodium album; conditions: for Lambsquarters plant response rating: postemergence, visual rating
How it was run: as §2

[18] = test system: wild oat; assay: Test B postemergence herbicide test; type: in vivo, Avena fatua; conditions: scale 0 (no effect) to 100 (complete control); for Plant response rating, Oat, Wild: Postemergence, 500 g ai/ha, visual rating after 13 to 15 days; for Oat, Wild plant response rating: postemergence, 125 g ai/ha, visual rating
How it was run: (§5)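 After treating 2-leaf paddy plants or 2–18 cm postemergence plants (1 to 4 leaves) with formulated chemical, researchers kept them in a greenhouse for 13–15 days. Effects were judged visually versus controls: 0 indicates none, 100 total control.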

[19] = test system: morningglory; assay: Test B pre-/postemergence herbicide test; type: in vivo, Ipomoea coccinea; conditions: for Morningglory plant response rating: postemergence, visual rating
How it was run: as §1

[20] = test system: rice; assay: Test B flooded paddy test; type: in vivo, Oryza sativa; conditions: 1000 g ai/ha, visual rating, scale 0 to 100 (0 no effect, 100 complete control), 13 to 15 days
How it was run: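 Formulated test chemicals went onto postemergence plants measuring 2 to 18 cm, at one to four leaves. For the paddy assay, species had reached two leaves. Scoring took place 13–15 days later by eye, relative to untreated plants, using 0 for no effect up to 100 for full control.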

[21] = test system: wheat; assay: Test B postemergence herbicide test; type: in vivo, Triticum aestivum; design: key to Wheat plant response rating: 0 = no effect, 100 = complete control; conditions: scale 0 (no effect) to 100 (complete control); for Plant response rating, Wheat: Postemergence, 500 g ai/ha, visual rating after 13 to 15 days; for Wheat plant response rating: postemergence, 125 g ai/ha, visual rating
How it was run: as §5

[22] = test system: large crabgrass; assay: Test A pre-/postemergence herbicide test; type: in vivo, Digitaria sanguinalis
How it was run: as §3

[23] = test system: small flower umbrella sedge; assay: Test B flooded paddy test; type: in vivo, Cyperus difformis; conditions: 1000 g ai/ha, visual rating, scale 0 to 100 (0 no effect, 100 complete control), 13 to 15 days
How it was run: as §4

[24] = test system: Surinam grass; assay: Test B pre-/postemergence herbicide test; type: in vivo, Urochloa decumbens; conditions: for Surinam Grass plant response rating: postemergence, visual rating
How it was run: as §2

[25] = Postemergence, 500 g ai/ha, visual rating after 13 to 15 days, scale 0 (no effect) to 100 (complete control)
[26] = Preemergence, 500 g ai/ha, scale 0 to 100
[27] = postemergence, 125 g ai/ha, visual rating, scale 0 (no effect) to 100 (complete control)
[28] = preemergence, 125 g ai/ha, 0 to 100 scale, 0 is no effect, 100 is complete control
[29] = Postemergence, 500 g ai/ha, 0 to 100 scale, 0 no effect, 100 complete control
[30] = Postemergence, 2000 g ai/ha, 0 to 100 scale, 0 no effect, 100 complete control
[31] = Preemergence, 500 g ai/ha, visual rating, 0 to 100 scale (0 no effect, 100 complete control)
[32] = Preemergence, 2000 g ai/ha, 0 to 100 scale, 0 no effect, 100 complete control
[33] = Preemergence, 2000 g ai/ha, visual rating, 0 to 100 scale (0 no effect, 100 complete control)
[34] = 125 g ai/ha, 0 to 100 scale, 0 is no effect, 100 is complete control
[35] = 125 g ai/ha, scale 0 (no effect) to 100 (complete control)
[36] = 500 g ai/ha, visual rating 0-100, 0 no effect, 100 complete control, preemergence

CCOC(=O)c1cc(NC(=O)c2cc(C(C)(C)C)nn2CC)ccc1F [Compound 89]
90: Plant response rating, Cocklebur [8, 25]
0: Barnyardgrass plant response rating [1, 26] | Plant response rating, Barnyardgrass [1, 28] | Foxtail, Giant plant response rating [2, 26] | Plant response rating, Foxtail, Giant [2, 28] | Pigweed plant response rating [3, 31] | Velvetleaf plant response rating [4, 31] | Plant response rating, Rice [6, 34] | Foxtail, Giant plant response rating [7, 31] | Foxtail, Giant plant response rating [7, 32] | Cocklebur plant response rating [8, 26] | Plant response rating, Cocklebur [8, 28] | Ducksalad plant response rating [9] | Plant response rating, Velvetleaf [10, 28] | Plant response rating, Crabgrass, Large [11, 28] | Barnyardgrass plant response rating [12, 31] | Barnyardgrass plant response rating [12, 32] | Blackgrass plant response rating [13] | Morningglory plant response rating [14, 31] | Corn plant response rating [15, 26] | Plant response rating, Corn [15, 28] | Plant response rating, Pigweed [16, 28] | Plant response rating, Lambsquarters [17, 28] | Plant response rating, Morningglory [19, 28] | Crabgrass, Large plant response rating [22, 31] | Crabgrass, Large plant response rating [22, 32] | Plant response rating, Surinam Grass [24, 28]
20: Plant response rating, Barnyardgrass [1, 25] | Plant response rating, Foxtail, Giant [2, 25] | Foxtail, Giant plant response rating [2, 27] | Pigweed plant response rating [3, 29] | Velvetleaf plant response rating [4, 29] | Plant response rating, Velvetleaf [4, 30] | Foxtail, Giant plant response rating [7, 29] | Plant response rating, Foxtail, Giant [7, 30] | Plant response rating, Crabgrass, Large [11, 25] | Barnyardgrass plant response rating [12, 29] | Plant response rating, Barnyardgrass [12, 30] | Morningglory plant response rating [14, 29] | Plant response rating, Corn [15, 25] | Pigweed plant response rating [16, 35] | Oat, Wild plant response rating [18] | Morningglory plant response rating [19, 35] | Plant response rating, Wheat [21] | Wheat plant response rating [21] | Crabgrass, Large plant response rating [22, 29] | Plant response rating, Surinam Grass [24, 25]
50: Plant response rating, Velvetleaf [10, 25] | Plant response rating, Morningglory [19, 25]
40: Plant response rating, Pigweed [16, 25]
25: Plant response rating, Crabgrass, Large [22, 30]
80: Crabgrass, Large plant response rating [11, 26]
10: Barnyardgrass plant response rating [1, 27] | Pigweed plant response rating [3, 32] | Velvetleaf plant response rating [4, 33] | Barnyardgrass plant response rating [5] | Crabgrass, Large plant response rating [11, 27] | Plant response rating, Blackgrass [13] | Morningglory plant response rating [14, 32] | Corn plant response rating [15, 27] | Rice plant response rating [20] | Surinam Grass plant response rating [24, 35]
30: Plant response rating, Pigweed [3, 30] | Velvetleaf plant response rating [10, 35] | Lambsquarters plant response rating [17, 35] | Plant response rating, Oat, Wild [18]
60: Plant response rating, Lambsquarters [17, 25] | Sedge, Umbrella plant response rating [23]
15: Plant response rating, Morningglory [14, 30]
70: Cocklebur plant response rating [8, 27]

CCn1nc(C(C)(C)C)cc1C(=O)Nc1cccc(C(=O)OCCF)c1C [Compound 91]
0: Plant response rating, Barnyardgrass [1, 25] | Barnyardgrass plant response rating [1, 27] | Plant response rating, Barnyardgrass [1, 28] | Plant response rating, Foxtail, Giant [2, 25] | Foxtail, Giant plant response rating [2, 27] | Pigweed plant response rating [3, 29] | Pigweed plant response rating [3, 31] | Barnyardgrass plant response rating [5] | Plant response rating, Rice [6, 34] | Foxtail, Giant plant response rating [7, 29] | Plant response rating, Foxtail, Giant [7, 30] | Foxtail, Giant plant response rating [7, 31] | Cocklebur plant response rating [8, 27] | Velvetleaf plant response rating [10, 35] | Crabgrass, Large plant response rating [11, 27] | Barnyardgrass plant response rating [12, 29] | Plant response rating, Barnyardgrass [12, 30] | Barnyardgrass plant response rating [12, 31] | Plant response rating, Blackgrass [13] | Blackgrass plant response rating [13] | Morningglory plant response rating [14, 29] | Plant response rating, Morningglory [14, 30] | Morningglory plant response rating [14, 31] | Plant response rating, Corn [15, 28] | Plant response rating, Pigweed [16, 36] | Plant response rating, Pigweed [16, 28] | Plant response rating, Lambsquarters [17, 28] | Oat, Wild plant response rating [18] | Plant response rating, Morningglory [19, 25] | Morningglory plant response rating [19, 35] | Plant response rating, Morningglory [19, 28] | Wheat plant response rating [21] | Crabgrass, Large plant response rating [22, 31]
20: Plant response rating, Pigweed [3, 30] | Velvetleaf plant response rating [4, 33] | Lambsquarters plant response rating [17, 35] | Plant response rating, Crabgrass, Large [22, 30]
60: Sedge, Umbrella plant response rating [23]
10: Plant response rating, Barnyardgrass [1, 36] | Plant response rating, Foxtail, Giant [2, 36] | Plant response rating, Foxtail, Giant [2, 28] | Plant response rating, Velvetleaf [4, 30] | Plant response rating, Rice ([6]; 500 g ai/ha, visual rating 0-100, 0 no effect, 100 complete control) | Plant response rating, Cocklebur [8, 25] | Plant response rating, Velvetleaf [10, 25] | Plant response rating, Crabgrass, Large [11, 25] | Morningglory plant response rating [14, 32] | Plant response rating, Corn [15, 36] | Plant response rating, Corn [15, 25] | Corn plant response rating [15, 27] | Plant response rating, Pigweed [16, 25] | Pigweed plant response rating [16, 35] | Plant response rating, Oat, Wild [18] | Plant response rating, Morningglory [19, 36] | Rice plant response rating [20] | Plant response rating, Wheat [21] | Crabgrass, Large plant response rating [22, 29] | Plant response rating, Surinam Grass [24, 25] | Surinam Grass plant response rating [24, 35]
35: Crabgrass, Large plant response rating [22, 32]
55: Pigweed plant response rating [3, 32]
15: Barnyardgrass plant response rating [12, 32]
30: Foxtail, Giant plant response rating [7, 32] | Ducksalad plant response rating [9] | Plant response rating, Lambsquarters [17, 36] | Plant response rating, Lambsquarters [17, 25]
5: Velvetleaf plant response rating [4, 29] | Velvetleaf plant response rating [4, 31]
